# Legend:
# [1] = test system: endoplasmic reticulum stress signaling molecules GRP78, ATF6, PelF-2a and IREa; assay: AOM/DSS-induced endoplasmic reticulum stress in mouse colon (FIG. 9); type: in vivo, C57BL/6 mice
# Description: FIG. 9 illustrates the mechanism of M10 in inhibiting endoplasmic reticulum stress induced by AOM/DSS in Example 13;
# [2] = test system: signaling molecules ATG3, ATG5, ATG7, ATG12, and ATG1611; assay: Cellular autophagy caused by AOM/DSS-induced endoplasmic reticulum stress in colonic epithelial cells (FIG. 10); type: in vivo, C57BL/6 mice
# Description: FIG. 10 illustrates the mechanism of M10 in inhibiting cellular autophagy and colonic epithelial cell proliferation and carcinogenesis caused by AOM/DSS-induced endoplasmic reticulum stress in Example 13;
# [3] = Water solubility test (equilibrium solubility in pure water, LC/MS); type: physicochemical; details: 37° C.
# Procedure: Water solubility test for myricetin derivative M5, M6 and M10
# Instrument: Waters Alliance e2695 LC/MS; chromatographic column: Waters×Bridge C18 4.6×150 mm.
# Appropriate amount of said myricetin derivative was weighed and dissolved in methanol to prepare a solution of 1 mg/ml respectively, which was diluted with methanol to different concentrations of working solution as standard samples for testing.
# 2. 1 mL of ultrapure water was added into a 1.5 ml transparent EP tube. Appropriate amount of said myricetin derivative was each added into a transparent EP tube, followed by vortex mixation and ultrasonication till the drug was no longer dissolved (the solution appeared cloudy or had suspended particles). The mixture was then placed in an incubating oscillator for shaking at the temperature of (37±1) ° C., 100 r/min, for 24 hours, to achieve a sufficient solubility balance. 24 hours later, the saturated solution was taken out for centrifugation at 3000 r/min for 15 min. The supernatant was immediately filtered through a 0.45 μm microporous membrane, and the initial part of the filtrate was discarded. Samples were added for chromatography. The peak area was measured and the equilibrium solubility of each compound in pure water was calculated using a standard curve.
# KM mice = assay: Acute toxicity experiment, maximum tolerated dose in mice; type: in vivo
# Procedure: Acute Toxicity Experiment on Myricetin Derivative M10, Testing Maximum Tolerated Dose in Mice.
# Animal germ line: KM mice
# The KM mice with quarantine conformity were selected for the experiment. 10 mice weighing 18 g-22 g each after fasting were randomly selected, labeled and housed in separate cages.
# In accordance with the acute toxicity testing method in Healthy Food Inspection and Evaluation Technical Specifications (2003 edition), sample solutions were prepared and administered twice intragastrically within 24 hours with the maximum dose of 20 mL/kg. Mice were monitored 1, 4, 8, 24, 48, 72, 96, 120, 144, 168 and 336 hours respectively after drug administration, and the maximum tolerable dose in mice was calculated if no mouse died.
# [4] = test system: azomethane (AOM)/dextran sulfate sodium (DSS)-induced chronic ulcerative colitis and inflammation-associated tumorigenesis; assay: AOM/DSS-induced chronic ulcerative colitis and inflammation-associated tumorigenesis in mice; type: in vivo, C57BL/6 mice
# Description: Determination of therapeutic effect of myricetin derivative M10 on azomethane (AOM)/dextran sulfate sodium (DSS)-induced chronic ulcerative colitis and inflammation-associated tumorigenesis.
# Compound tested and control drugs: myricetin derivative M10, control compound myricetin, aspirin (Sigma).
# Experimental animals: C57BL/6 mice, 20 to 22 g, both male and female, SPF grade provided by Beijing Vital Lihua Experimental Animal Company, and mice were fed with standard animal feed.
# Animal models of AOM/DSS-induced chronic colitis and inflammation-associated tumorigenesis: 48 C57BL/6 mice were randomly divided into six groups with eight mice in each group, including model group, for which 0.5% CMC-Na was administered intragastrically every day; aspirin group, for which 100 mg/kg of aspirin (dissolved in 0.5% CMC-Na) was administered intragastrically; myricetin control group, for which 100 mg/kg of myricetin (dissolved in 0.5% CMCNa) was administered intragastrically; M10 high dose group, for which 100 mg/kg of M10 (dissolved in pure water) was administered intragastrically; M10 medium dose group, for which 50 mg/kg of M10 (dissolved in pure water) was administered intragastrically; M10 low dose group, for which 25 mg/kg of M10 (dissolved in pure water) was administered intragastrically.
# Preparation of chronic ulcerative colitis mice model: said groups of mice were intraperitoneally injected with 10 mg/kg of azoxymethane (AOM) on day one. Purified drinking water containing 2% dextran sulfate sodium (DSS) was freshly made and provided on day one and on the next six consecutive days, the replaced by purified drinking water for the next seven consecutive days. The above procedure was then repeated for 3 more times.
# M10-treated group: 200 mg of M10 was weighed and dissolved in 10 mL of 0.5% CMC-Na solution (20 mg/mL), and consecutively diluted 2 times and 5 times for future use. 0.2 mL of each prepared solutions was given intragastrically to mice (the body weight was assumed as 20 g per mouse), namely divided into high, medium or small dose groups. Myricetin control group: 200 mg of myricetin was weighed and dissolved in 10 mL of 0.5% CMC-Na. Aspirin-treated group: 200 mg of aspirin was weighed and dissolved in 10 mL of 0.5% CMC-Na. Administration method: The body weight of mice was measured daily, and drugs were administered at 0.01 mL/g (100 mg/kg) per day for 12 consecutive weeks. 4. Animal observation and treatment methods: weight, diet, diarrhea (or bloody stools) etc. were observed daily.
# At the end of the experiment, mice were sacrificed. The colon and small intestine were dissected out for visual observation and pathological analysis. Pathological examination methods and evaluation criteria: the mice colons of each group were fixed with 10% formalin, followed by routine paraffin embedding, sectioning and HE staining. The developmental degree of colonic inflammation and colon cancer in each group of mice was evaluated under microscopic observation.
compound,measurement,setting,value
O=c1c(O[C@@H]2O[C@H](CO)[C@@H](O[C@@H]3O[C@H](CO)[C@H](O)[C@H](O)[C@H]3O)[C@H](O)[C@H]2O)c(-c2cc(O)c(O)c(O)c2)oc2cc(O)cc(O)c12 [M10],"Swollen endoplasmic reticulum membrane, irregular fracture arrangement",[1]; FIG. 9A,significantly alleviated
same,"Activation of stress signaling molecules GRP78, ATF6, PelF-2a and IREa",[1]; FIG. 9B,significantly inhibited
same,Autophagic vacuoles in colonic epithelial cells with mitochondrial swelling,[2]; FIG. 10A,significantly alleviated
same,"Activation of signaling molecules ATG3, ATG5, ATG7, ATG12 and ATG1611",[2]; FIG. 10B,significantly inhibited
same,Solubility (in words),"[3]; 24 h, per Table 2",excellent solubility
same,solubility at 24 h,"[3]; ultrapure water, thermodynamic from solid",> 100 mg/mL
same,Maximum tolerable dose in mice,"KM mice; administered twice intragastrically within 24 hours, 0.02 mL/g, 250 mg/mL, 14 days observation",more than 5 g/kg
same,Toxicity during whole observation period,KM mice; fourteen days observation,no obvious toxicity
same,Death,"KM mice; mouse, in vivo",No death
same,Pathological analysis of colon tissue (colon cancer),"[4]; 100 mg/kg aspirin or myricetin, M10 25-100 mg/kg, 12 weeks, FIG. 8",significant activity of preventing and treating colon cancer
same,"Symptoms of AOM/DSS-induced chronic colitis (body weight loss, loose stools, blood in stool)","[4]; M10 25, 50 and 100 mg/kg intragastrically, 12 weeks",significantly alleviated
same,Number of colon tumor nodules,"[4]; all doses (25, 50, 100 mg/kg), after 12 weeks, FIG. 6 and FIG. 7",significantly reduced
same,Loss of body weight induced by AOM/DSS,"[4]; intragastric, 12 weeks, week 10 to 12, FIG. 4",significantly prevented
